Data from patent US20260263506A1, “CORNEAL DISORDER TREATMENT AGENT” (M'S SCIENCE CORPORATION, priority 2022, published 2026).
Marks after values point to notes of the source that are not given here.

How the values were obtained:
[1] = test system: HCE-T (immortalized human corneal epithelial) cells; experiment: HCE-T cell migration assay, Calcein-AM fluorescence of cells migrated into the stopper zone; assay type: cell-based; settings: for Relative fluorescence intensity (%): no-addition control = 100%; for Effect on migration of human corneal epithelial cells (in words): summary statement from both analysis methods
Experimental: (§1) HCE-T (immortalized human corneal epithelial) cells [isolated and established from human corneal epithelia; obtained from RIKEN Cell Bank] were cultured in DMEM/F12 medium supplemented with 5% fetal bovine serum in a CO2 incubator at 37° C.
(§2) HCE-T cells grown to 60%-80% confluency in a T75 flask were detached with trypsin-EDTA and collected. The collected cells were suspended in fresh DMEM/F12 medium supplemented with fetal bovine serum.
(§3) From this cell suspension, 60,000 cells per well were seeded in a 96-well multiwell-plate, in which each well was fitted with a cell seeding stopper.
(§4) After the plate was incubated overnight at 37° C. in a CO 2 incubator, the cell stoppers were removed, and the cells were washed twice with a serum-free medium. Then, the medium was replaced by a serum-free medium supplemented with the test substance or a control serum-free medium devoid of the test substance, and the cells were cultured for 28 hours.
(§5) The serum-free medium with the test substance used was a medium containing fondaparinux sodium [obtained from Selleck] at a concentration of 0.1% (w/v) or 0.3% (w/v) or a medium containing 0.5% (w/v) sodium chondroitin sulfate (obtained from Tokyo Chemical Industry; average molecular weight, ~30,000).
(§6) The cultured cells were stained with Calcein-AM (obtained from nacalai tesque), and the fluorescence emitted from HCE-T cells that migrated to the zone where the stopper was placed was measured. After the fluorescence intensity was measured, fluorescence microscopic images were acquired and analyzed using a BZ-X analyzer to measure cell migration areas.
A relative fluorescence intensity value is a fluorescence intensity measurement for each test substance group expressed in percentage in reference to the fluorescence intensity of the no-addition group (control) as 100%, indicating the relative level of cell migration compared to the control.
(§7) As in Experiment 1, HCE-T (immortalized human corneal epithelial) cells were used to investigate the effects of test substances on the migration of HCE-T cells. The test substances used were fondaparinux sodium, high-molecular-weight sodium hyaluronate (average molecular weight 887,000), sodium heparan sulfate (average molecular weight 23,000), and low molecular weight heparin (average molecular weight 5,400). Among these test substances, fondaparinux sodium was obtained from Selleck as described above, and all other glycosaminoglycans were obtained from Iwai Chemicals Company. The concentration of each test substance was 0.3% (w/v).

[2] = test system: HCE-T (immortalized human corneal epithelial) cells; experiment: HCE-T cell migration assay, cell migration area from fluorescence microscopic images (BZ-X analyzer); assay type: cell-based; settings: for Relative cell migration area (%): no-addition control = 100%
Experimental: as §1, §2, §3, §4, §5, §6
The cell migration areas were calculated (measured) through analysis of images acquired with a fluorescence microscope and were used to calculate areas relative to the no-addition control group (relative migration areas).
A relative migration area value is a relative cell migration area for each test substance group expressed in percentage in reference to the cell migration area of the no-addition control group as 100%.
as §7

[3] = Experiment 1, 0.1% (w/v), serum-free medium, 28 hours, mean and standard error of 3 measurements
[4] = Experiment 1, 0.3% (w/v), serum-free medium, 28 hours, mean and standard error of 3 measurements
[5] = Experiment 2, 0.3% (w/v), as in Experiment 1
[6] = Experiment 2, 0.3% (w/v), mean and standard error of 4 measurements
[7] = Experiment 1, 0.5% (w/v), serum-free medium, 28 hours, mean and standard error of 3 measurements

| Compound | Relative fluorescence intensity (%) ([1]; Experiment 1, 0.1% (w/v), 28 hours, n=3) | Fluorescence intensity [1, 3] | Relative fluorescence intensity (%) ([1]; Experiment 1, 0.3% (w/v), 28 hours, n=3) | Fluorescence intensity [1, 4] | Fluorescence intensity [1, 5] | Relative fluorescence intensity (%) ([1]; Experiment 2, 0.3% (w/v)) | Effect on migration of human corneal epithelial cells (in words) ([1]; listed as fondaparinux sodium, sodium salt) | Effect on migration of human corneal epithelial cells (in words) ([1]; listed as fondaparinux, sodium salt) | Relative cell migration area (%) ([2]; Experiment 1, 0.1% (w/v), n=3) | Cell migration area (10^4 μm^2) [2, 3] | Relative cell migration area (%) ([2]; Experiment 1, 0.3% (w/v), n=3) | Cell migration area (10^4 μm^2) [2, 4] | Cell migration area (10^4 μm^2) [2, 6] | Relative cell migration area (%) ([2]; Experiment 2, 0.3% (w/v), n=4) | Effect on migration of human corneal epithelial cells (in words) [1] | Relative fluorescence intensity (%) ([1]; Experiment 1, 0.5% (w/v), 28 hours, n=3) | Fluorescence intensity [1, 7] | Relative cell migration area (%) ([2]; Experiment 1, 0.5% (w/v), n=3) | Cell migration area (10^4 μm^2) [2, 7] |
| --- | --- | --- | --- | --- | --- | --- | --- | --- | --- | --- | --- | --- | --- | --- | --- | --- | --- | --- | --- |
| CO[C@H]1OC(COS(=O)(=O)[O-])[C@@H](O[C@@H]2OC(C(=O)[O-])[C@@H](O[C@H]3OC(COS(=O)(=O)[O-])[C@@H](O[C@@H]4OC(C(=O)[O-])[C@@H](O[C@H]5OC(COS(=O)(=O)[O-])[C@@H](O)C(O)C5NS(=O)(=O)[O-])C(O)C4O)C(OS(=O)(=O)[O-])C3NS(=O)(=O)[O-])C(O)C2OS(=O)(=O)[O-])C(O)C1NS(=O)(=O)[O-].[Na+].[Na+].[Na+].[Na+].[Na+].[Na+].[Na+].[Na+].[Na+].[Na+] (stereo partly drawn) [Fondaparinux sodium, methyl O-(2-deoxy-6-O-sulfo-2-sulfoamino-α-D-glucopyranosyl)-(1→4)-O-(β-D-glucopyranosyluronic acid)-(1→4)-O-(2-deoxy-3,6-di-O-sulfo-2-sulfoamino-α-D-glucopyranosyl)-(1→4)-O-(2-O-sulfo-α-L-idopyranosyluronic acid)-(1→4)-2-deoxy-6-O-sulfo-2-sulfoamino-α-D-glucopyranoside sodium salt] | 145.41 ± 10.19 | 0.183 ± 0.013 | 170.1 ± 2.84 | 0.215 ± 0.004 | 0.290 ± 0.028 | 237.36 ± 22.53 | promoted migration and stretching of human corneal epithelial cells | strong stimulatory effect | 160.5 ± 6.6 | 102.1 ± 4.2 10^4 μm^2 | 168.4 ± 5.1 | 107.1 ± 3.2* 10^4 μm^2 | 65.9 ± 6.4 10^4 μm^2 | 169.4 ± 16.4 | – | – | – | – | – |
| High-molecular-weight sodium hyaluronate | – | – | – | – | 0.176 ± 0.028 | 143.67 ± 22.72 | – | – | – | – | – | – | 50.9 ± 17.4 10^4 μm^2 | 130.9 ± 4.5 | – | – | – | – | – |
| Low molecular weight heparin | – | – | – | – | 0.359 ± 0.083 | 293.94 ± 68.25 | – | – | – | – | – | – | 78.4 ± 12.3* 10^4 μm^2 | 201.6 ± 31.6 | strong stimulatory effect | – | – | – | – |
| Sodium chondroitin sulfate | – | – | – | – | – | – | – | – | – | – | – | – | – | – | – | 89.20 ± 23.97 | 0.112 ± 0.030 | 103.9 ± 18.0 | 66.1 ± 1.1 10^4 μm^2 |
